Laboratory results reported in BigSolDB 2.1.

NC(=O)c1ccccc1N
Conditions | solubility (mole fraction)
in THF, 273.15 K | 0.226
in THF, 279.15 K | 0.237
in THF, 283.65 K | 0.245
in THF, 289.15 K | 0.255
in THF, 293.45 K | 0.263
in THF, 299.15 K | 0.275
in THF, 303.35 K | 0.284
in THF, 309.15 K | 0.296
in THF, 313.75 K | 0.31
in THF, 319.15 K | 0.326
in THF, 323.65 K | 0.339
in acetone, 273.15 K | 0.164
in acetone, 279.15 K | 0.181
in acetone, 284.15 K | 0.193
in acetone, 289.15 K | 0.208
in acetone, 293.35 K | 0.223
in acetone, 298.95 K | 0.243
in acetone, 303.35 K | 0.265
in acetone, 308.65 K | 0.292
in acetone, 313.15 K | 0.313
in acetone, 317.15 K | 0.341
in acetone, 324.15 K | 0.386
in acetonitrile, 273.15 K | 0.01
in acetonitrile, 279.15 K | 0.0139
in acetonitrile, 283.65 K | 0.0194
in acetonitrile, 289.15 K | 0.0267
in acetonitrile, 293.45 K | 0.0371
in acetonitrile, 299.15 K | 0.0531
in acetonitrile, 303.35 K | 0.066
in acetonitrile, 309.15 K | 0.0871
in acetonitrile, 313.75 K | 0.111
in acetonitrile, 319.15 K | 0.151
in acetonitrile, 323.65 K | 0.183
in ethanol, 273.15 K | 0.0302
in ethanol, 279.15 K | 0.0356
in ethanol, 284.15 K | 0.04
in ethanol, 289.15 K | 0.0477
in ethanol, 293.35 K | 0.0554
in ethanol, 298.95 K | 0.0648
in ethanol, 303.35 K | 0.0742
in ethanol, 313.15 K | 0.105
in ethanol, 317.15 K | 0.117
in ethanol, 324.15 K | 0.143
in ethyl acetate, 273.15 K | 0.053
in ethyl acetate, 279.15 K | 0.0608
in ethyl acetate, 283.65 K | 0.0684
in ethyl acetate, 289.15 K | 0.0778
in ethyl acetate, 293.45 K | 0.0856
in ethyl acetate, 299.15 K | 0.0977
in ethyl acetate, 303.35 K | 0.108
in ethyl acetate, 309.15 K | 0.123
in ethyl acetate, 313.75 K | 0.134
in ethyl acetate, 319.15 K | 0.154
in ethyl acetate, 323.65 K | 0.169
in isobutanol, 273.15 K | 0.0101
in isobutanol, 279.15 K | 0.013
in isobutanol, 284.15 K | 0.0153
in isobutanol, 289.15 K | 0.0176
in isobutanol, 293.35 K | 0.0211
in isobutanol, 298.95 K | 0.0261
in isobutanol, 303.35 K | 0.0301
in isobutanol, 308.65 K | 0.0369
in isobutanol, 313.15 K | 0.044
in isobutanol, 317.15 K | 0.0504
in isobutanol, 324.15 K | 0.0629
in isopentanol, 273.15 K | 0.0117
in isopentanol, 279.15 K | 0.014
in isopentanol, 283.65 K | 0.0152
in isopentanol, 289.15 K | 0.0181
in isopentanol, 293.25 K | 0.0217
in isopentanol, 298.95 K | 0.0273
in isopentanol, 303.25 K | 0.0312
in isopentanol, 308.15 K | 0.0391
in isopentanol, 313.15 K | 0.0458
in isopentanol, 318.15 K | 0.055
in isopentanol, 323.15 K | 0.0647
in isopropanol, 273.15 K | 0.0145
in isopropanol, 279.15 K | 0.0182
in isopropanol, 284.15 K | 0.0216
in isopropanol, 289.15 K | 0.0253
in isopropanol, 293.35 K | 0.0297
in isopropanol, 298.95 K | 0.0355
in isopropanol, 303.35 K | 0.042
in isopropanol, 308.65 K | 0.0505
in isopropanol, 313.15 K | 0.0593
in isopropanol, 317.15 K | 0.0676
in isopropanol, 324.15 K | 0.0844
in methanol, 273.15 K | 0.05
in methanol, 279.15 K | 0.0604
in methanol, 284.15 K | 0.0684
in methanol, 289.15 K | 0.0798
in methanol, 293.35 K | 0.0905
in methanol, 298.95 K | 0.106
in methanol, 303.35 K | 0.123
in methanol, 308.65 K | 0.148
in methanol, 313.15 K | 0.17
in methanol, 317.15 K | 0.19
in methanol, 324.15 K | 0.229
in methyl acetate, 273.15 K | 0.0644
in methyl acetate, 279.15 K | 0.0723
in methyl acetate, 283.65 K | 0.0797
in methyl acetate, 289.15 K | 0.0892
in methyl acetate, 293.25 K | 0.1
in methyl acetate, 298.95 K | 0.114
in methyl acetate, 303.25 K | 0.127
in methyl acetate, 308.15 K | 0.144
in methyl acetate, 313.15 K | 0.163
in methyl acetate, 318.15 K | 0.186
in methyl acetate, 323.15 K | 0.208
in n-butanol, 273.15 K | 0.0162
in n-butanol, 279.15 K | 0.0198
in n-butanol, 284.15 K | 0.0232
in n-butanol, 289.15 K | 0.0268
in n-butanol, 293.35 K | 0.0312
in n-butanol, 298.95 K | 0.0362
in n-butanol, 303.35 K | 0.0423
in n-butanol, 308.65 K | 0.0492
in n-butanol, 313.15 K | 0.0579
in n-butanol, 317.15 K | 0.065
in n-butanol, 324.15 K | 0.0788
in n-hexanol, 273.15 K | 0.0141
in n-hexanol, 279.15 K | 0.0166
in n-hexanol, 283.65 K | 0.0174
in n-hexanol, 289.15 K | 0.0216
in n-hexanol, 293.25 K | 0.0246
in n-hexanol, 298.95 K | 0.0297
in n-hexanol, 303.25 K | 0.034
in n-hexanol, 308.15 K | 0.0407
in n-hexanol, 313.15 K | 0.0468
in n-hexanol, 318.15 K | 0.0557
in n-hexanol, 323.15 K | 0.0641
in n-octanol, 273.15 K | 0.0143
in n-octanol, 279.15 K | 0.0159
in n-octanol, 283.65 K | 0.0176
in n-octanol, 289.15 K | 0.0206
in n-octanol, 293.25 K | 0.0235
in n-octanol, 298.95 K | 0.0275
in n-octanol, 303.25 K | 0.0316
in n-octanol, 308.15 K | 0.0377
in n-octanol, 313.15 K | 0.0434
in n-octanol, 318.15 K | 0.0505
in n-octanol, 323.15 K | 0.0582
in n-pentanol, 273.15 K | 0.0152
in n-pentanol, 279.15 K | 0.0183
in n-pentanol, 284.15 K | 0.0207
in n-pentanol, 289.15 K | 0.0243
in n-pentanol, 293.35 K | 0.0276
in n-pentanol, 298.95 K | 0.0326
in n-pentanol, 303.35 K | 0.0379
in n-pentanol, 308.65 K | 0.044
in n-pentanol, 313.15 K | 0.0514
in n-pentanol, 317.15 K | 0.0579
in n-pentanol, 324.15 K | 0.0703
in n-propanol, 273.15 K | 0.0193
in n-propanol, 279.15 K | 0.0232
in n-propanol, 284.15 K | 0.027
in n-propanol, 289.15 K | 0.0314
in n-propanol, 293.35 K | 0.0363
in n-propanol, 303.35 K | 0.0513
in n-propanol, 308.65 K | 0.0626
in n-propanol, 313.15 K | 0.0728
in n-propanol, 317.15 K | 0.0842
in n-propanol, 324.15 K | 0.105
